Where “and” joins values, the source holds several entries; their conditions need not be identical. Equal entries are not always repeated.

In experiment [1] the test system is A2780-cisplatin resistant spheroids. Put plainly: Spheroid diameter measurement. The experiment is classed as cell-based. The conditions noted are these: 96 h. The procedure: (§1) For cell spheroid formation, HCT116-oxaliplatin resistant cells, A2780-cisplatin resistant cells, and HT1080 cells were seeded in Corning® Spheroid opaque-walled 96 well Microplates (ultra-low attachment; Nuclon™ Sphera™, Thermofisher) at densities of 2000 cells/well in 100 μl of cell solution and allowed to grow for 4 days, before any manipulation.
The diameters of spheroid cells were determined using Cell^F Imaging Software. A diameter corresponds to the mean value of one horizontal and one vertical measurement.

The subject of a further experiment is A549 cells. The experiment can be described thus: SRB growth inhibition and combination index with cisplatin, A549. The experiment is classed as cell-based, human. The procedure:
(§2) The affected fractions were calculated from the SRB or MTT assay absorbance values and were registered to derive the respective CI values and isobolograms. A CI value of less than 1 (one) indicates synergy.
(§3) The SRB assay was used to assess cell growth inhibition by IE-8 alone and in combination with cisplatin. […] For combination studies drug treatments were sequential with IE-8 applied first followed by cisplatin for 1 h. […] Absorbance was read at 540 nm and results were normalized to untreated controls. For analysis of GC50 values and statistical significance, non-linear regression analysis with a comparison of fits was performed with the GraphPad Prism 6.0 software.
(§4) Drug Combination studies. Sulforhodamine B (SRB) Cell Growth Inhibition Assay. The SRB assay was used to assess cell growth inhibition by 8 h alone and in combination with cisplatin. […] For combination studies drug treatments were sequential with 8 h applied first followed by cisplatin for 1 h. […] Absorbance was read at 540 nm and results were normalized to untreated controls. For analysis of GC50 values and statistical significance, non-linear regression analysis with a comparison of fits was performed with the GraphPad Prism 6.0 software.

The next experiment concerns DU145 cells. The experiment can be described thus: SRB growth inhibition and combination index with cisplatin, DU145. Format: cell-based. How it is done:
as §2, §3, §4

Experiment [2] deals with HCT116-oxaliplatin resistant cells. The experiment can be described thus: Colony formation assay with oxaliplatin. Format: cell-based. The conditions noted are these: 1 μM oxaliplatin alone, 10 days. How it is done:
HCT116-oxaliplatin res cells were seeded at 2000 cells/well in 6-well plates and allowed to adhere overnight. The next day, oxaliplatin and IE-8 were added simultaneously. First, the specific amount of cells solution was removed from each well and afterwards the same volume of the appropriate drug dilution was added to achieve the right concentration. IE-8 was diluted in DMA. Cells were also treated with Oxaliplatin and IE-8 alone. The plates were left the incubator and the cells were allowed to grow colonies for 10 days. After 10 days the entire cell solution was removed from each well, which was subsequently washed with 500 μl of PBS. 1 ml of cold 100% methanol was added and the plates were incubated for 30 minutes at 4 C. After a second wash, the cells were stained with 1 ml of […] staining dye for 2-3 minutes, rinsed with water, allowed to dry overnight and the colonies were quantified using a gel imaging system (Fusion Fx7) and its in-built colony counter software.

The subject of a further experiment is pStat3^Tyr705. The experiment can be described thus: Immunoblotting of phosphorylated Stat3 in cancer cells. The experiment is classed as cell-based, human. As to conditions: DU145 and A549 cells with constitutively active Stat3, 18 h. The procedure:
(§5) Whole cell lysates were prepared by incubation of harvested, trypsinised cells with CelLytic™ lysis buffer (Sigma-Aldrich) supplemented with 1× protease and 1× phosphatase inhibitors (Roche). Protein quantification was carried out using a protein assay kit (Bio-Rad). 40 μg of the lysates were denatured by heating for 5 min at 95° C. in sample buffer containing 100 mM Tris-Cl (pH 6.8), 4% SDS, 10% 2-mercaptoethanol, 20% glycerol, and 0.02% bromophenol blue. Precision Plus Protein Dual colour standards (Bio-Rad) were used as a molecular weight reference. For the detection of STAT3, pSTAT3, α/β tubulin, cleaved PARP, Bcl-2, Bcl-xL, FANCD2, BRCA1, EME1 and MUS81, proteins were separated on a NuPAGE 7% Tris-acetate gel (Life Technologies) and subsequently transferred to polyvinylidene difluoride membranes (Immobilon®-P transfer membrane; Millipore). […] Membranes were blocked for 1 h at ambient temperature in a blocking buffer containing 5% w/v Bovine Serum Albumin (BSA; Sigma-Aldrich) in 1×TBS, 0.1% Tween-20. All proteins were identified by incubation in a 1:1000 dilution of the respective polyclonal antibodies (Cell signaling) in blocking buffer overnight at 4° C. and subsequent incubation for 1 h with an anti-rabbit or anti-mouse secondary antibody (Cell signalling) at a dilution of 1:1000. The α/β tubulin (1:2000; Cell Signaling) and the anti-phospho-histone H2AX Antibody (1:500; Millipore) were used in the denoted dilutions. Antibody binding was visualized by enhanced chemiluminescence (Amersham) on autoradiography film (Kodak-X-Omat). Alternatively Images were captured by the GelDoc-It Imaging System Fusion Fx7 (Vilber Lourmat, Germany).
as §5, with “Immunoblotting. Whole” for “Whole”, “CelLytic™ M” for “CelLytic™”, “pSTAT3, a/0” for “pSTAT3, α/β”, “in 1×TBS” for “in 1×TBS,”, “(Cell signalling)” for “(Cell signaling)”
For orientation: In western blotting, separated proteins are transferred to a membrane and probed.

The test system of experiment [3] is A2780-cisplatin resistant spheroids. Put plainly: CellTiter-Glo 3D cell viability assay, A2780-cisplatin resistant spheroids. The experiment is classed as cell-based. As to conditions: 96 h exposure, 3D CellTiter-Glo. The procedure:
as §1
(§6) At the end of drug incubation, both the plates and the CellTitre-Glo® reagent (previously thawn overnight in the fridge) were equilibrated at room temperature for at least 30 min. Subsequently, 100 μl of cell solution were carefully removed from each well, without disrupting the spheroid and equal volume of CellTitre-Glo® reagent was added. Cell lysis was performed by vigorously shaking the plate for 5 min. To stabilize the luminescent signal, the plate was incubated in the dark at RT for another 30 min before luminescence was recorded on a plate reader. The cell viability of treated samples was normalised to the untreated controls.
(§7) The cytotoxicity studies in spheroids were conducted using the CellTiter-Glo® 3D Cell viability assay (Promega) following the instructions of the manufacturer.
On the technique in general: Cellular ATP, detected with luciferase, serves as a proxy for viable cell number.

For experiment [4], the system named is HCT116-oxaliplatin resistant spheroids. The experiment can be described thus: CellTiter-Glo 3D cell viability assay, HCT116-oxaliplatin resistant spheroids. Format: cell-based. As to conditions: 96 h exposure, 3D CellTiter-Glo. How it is done:
as §1
as §6, with “Spheroid cells were treated by adding 100 μl of 2-fold the desired compound concentration and incubated at 37° C. for 96 h. At” for “At”
as §7

Where [5] appears, read: cisplatin alone 1 h, 96 h total, SRB.

Broadly, the IC50 is the midpoint of a concentration-inhibition curve. On to `N.N.[Cl][Pt][Cl]` [Cisplatin, reference compound], for which the “Diameter (μm)” value in experiment [1] (cisplatin 1.75 μM) stood at 1071.4 μm; in experiment [1] (cisplatin 3.5 μM), 1047.5 μm; in experiment [1] (cisplatin 5.25 μM), 916.4 μm; in experiment [1] (cisplatin 7.0 μM), 833.6 μm; in experiment [1] (cisplatin 7.0 μM, listed as cisplatin), 834 μm; in experiment [1] (cisplatin 8.75 μM), 713.0 μm. Besides, the IC50 in the experiment on A549 cells (setting [5]) was 77.8 µM and 64.6 µM; with DU145 cells (setting [5]), 49.2 µM and 49.3 µM.
For the compound `O=C(O)C(=O)O.[NH-][C@@H]1CCCC[C@H]1[NH-].[Pt+2]` [Oxaliplatin, reference compound], the number of colonies result in experiment [2] is “about 260”.
Consider `O=[N+]([O-])c1ccc2c(c1)S(=O)(=O)C=C2` [Stattic], for which the “inhibition of Stat3 tyrosine (705) phosphorylation (pStat3)” value in the experiment on pStat3^Tyr705 is on record as “much higher doses are required”. Further, the “combination index analysis with cisplatin” value is “lower levels of synergy” in the experiment on A549 cells (stattic:cisplatin ratio 1:5) and “lower levels of synergy within a narrower range of doses” in the experiment with DU145 cells (stattic:cisplatin ratio 1:5). Moreover, the IC50 in experiment [3] amounted to 9.14 ± 2.74 µM.
On to `O=C1C(O)=C([C@H]2CC[C@H](c3ccc(Cl)cc3)CC2)C(=O)c2ccccc21` [Atovaquone, reference compound], for which the IC50 in experiment [4] came out at 16.5 µM; in experiment [3] it was 24.4 ± 3.36 µM.
As to `CC1(C)C=C(CN2C/C(=C\c3ccc(F)cc3)C(=O)/C(=C/c3ccc(F)cc3)C2)C(C)(C)N1O` [HO-3867, reference compound], the IC50 in experiment [4] was determined as 33 µM; in experiment [3] it was 29.7 ± 7.81 µM.

These data come from US11964943B2, “3,5-diarylidenyl-n-substituted-piperid-4-one-derived inhibitors of Stat3 pathway activity and uses thereof” (priority 2017, dated 2024).
